{
  "source": "paper PMC9583845",
  "about": "“Characterization of the chicken melanocortin 5 receptor and its potential role in regulating hepatic glucolipid metabolism” (Frontiers in Physiology, 2022)",
  "key": {"[1]": {"target": "chicken MC5R + MRAP2 (Gallus gallus, UniProt O73671)", "sequence (O73671 1-325)": "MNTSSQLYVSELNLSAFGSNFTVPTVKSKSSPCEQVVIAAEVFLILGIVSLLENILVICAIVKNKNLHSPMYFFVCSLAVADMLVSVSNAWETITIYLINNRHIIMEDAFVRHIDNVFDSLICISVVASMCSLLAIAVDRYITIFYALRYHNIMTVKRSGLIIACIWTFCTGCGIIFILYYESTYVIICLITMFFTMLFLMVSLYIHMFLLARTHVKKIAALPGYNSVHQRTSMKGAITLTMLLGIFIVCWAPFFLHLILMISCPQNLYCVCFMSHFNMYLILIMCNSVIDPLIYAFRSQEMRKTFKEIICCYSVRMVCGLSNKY", "sequence (A0A140B2F4 1-206 partner)": "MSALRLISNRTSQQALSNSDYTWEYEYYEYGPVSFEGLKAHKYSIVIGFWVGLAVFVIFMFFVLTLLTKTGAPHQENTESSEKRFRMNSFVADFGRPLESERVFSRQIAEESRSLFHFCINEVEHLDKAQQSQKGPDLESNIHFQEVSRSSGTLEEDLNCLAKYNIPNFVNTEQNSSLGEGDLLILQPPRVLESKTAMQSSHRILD", "assay": "pGL3-CRE-luciferase reporter assay, CHO cells co-expressing MC5R and cMRAP2", "assay_type": "cell-based", "conditions": "for effect of MRAP2 co-expression on sensitivity of MC5R: vs MC5R expressed alone", "procedure": "The expression plasmids encoding MC5R, MRAP1 and MRAP2 were established by cloning their entire open reading frame (ORF) into the pcDNA3.1 (+) expression vector (Invitrogen).\nThe cells were then transfected with a mixture containing 700 ng pGL3-CRE-Luciferase reporter construct, 200 ng of receptor expression plasmid (or empty pcDNA3.1 vector as a negative control), 20 ng of pRL-TK construct (containing a Renilla luciferase gene, used as an internal control), and 2 μl jetPRIME transfection reagent (Polyplus Transfection, Illkirch, France) in 200 μL buffer. […] After removal of the medium from the 96-well plate, the cells were treated with 100 μl ligand-containing medium (or ligand-free medium) for 6 h. Finally, CHO cells were lysed with 1 × passive lysis buffer for luciferase assay (Promega) and the luciferase activity of the cell lysate was measured by a Multimode Microplate Reader (TriStar LB941, EG&G Berthold, Germany) according to the manufacturer’s instruction.\nAll statistical analysis was performed using GraphPad Prism 9 (Graph Pad Software Inc., San Diego, CA). The dose-response curves were constructed using nonlinear regression models. Student’s test was used to compare two groups, for more than two groups one-way ANOVA was performed followed by Dunnett’s test. To validate our results, all in-vitro experiments were repeated three times, and representative data are reported."}, "[2]": {"tested_on": "CREB phosphorylation (cMC5R)", "assay": "CREB phosphorylation, western blot, CHO cells expressing cMC5R", "assay_type": "cell-based, chicken", "conditions": "10 nM, 10 min; p-CREB normalized by total CREB; three independent experiments; Figure 2D", "procedure": "To investigate whether the activation of cMC5R can enhance CREB phosphorylation, 100 ng of cMC5R expression plasmid, or an empty pcDNA3.1 (+) vector, was transfected into CHO cells cultured in a 24-well plate (Nunc) using jetPRIME transfection reagent (Polyplus Transfection). After 24 h transfection, ACTH (10 nM) or α-MSH (10 nM) was added to treat the cells for 10 min. Then the whole-cell lysates were used to examine the level of phosphorylated CREB using western blot. The level of total CREB protein was also examined and used as internal controls in each experiment. The phosphorylated CREB (p-CREB) and total CREB levels were quantified by densitometric analysis with ImageJ software. Relative optical densities of p-CREB normalized by CREB levels compared to the densities in the absence of ACTH (or α-MSH) are shown as relative p-CREB/CREB expression (fold changes)."}, "[3]": {"tested_on": "primary chicken hepatocytes", "assay": "Glucose production from primary cultured chicken hepatocytes", "assay_type": "cell-based", "conditions": "for glucose production (in words): primary chicken hepatocytes, 100 nM for 30 or 60 min, or 0.1–100 nM for 60 min, gluconeogenic substrates 20 mM lactate, 2 mM pyruvate, four independent experiments, Figures 7A,B", "procedure": "(§1) To evaluate the effect of ACTH1-39 on chicken liver, the chicken hepatocytes were prepared and maintained as a monolayer culture. Briefly, one-month-old male chicken hepatocytes were isolated by perfusion of a liver with Ca^2+-free KRB buffer to remove blood cells, and being digested with 0.25% collagenase-I for 10 min. Hepatocytes were obtained following filtering and washing using M199 medium. Then the hepatocytes were plated in a Corning CellBIND 48-well microplate (Corning, NY, cat. no.3338) with M199 medium containing 100 U/ml penicillin and […] streptomycin (Gibco), 5 μg/ml bovine insulin (Sigma), and 5% FBS at 37°C in a 5% CO2 atmosphere. To adhere to the wall, the cells were incubated on the 48-well plate for 4 h.\nGlucose production from primary cultured chicken hepatocytes was measured as previously described ([Collins et al., 2006]). Briefly, cells were washed three times with warm phosphate-buffered saline (PBS) to remove glucose, followed by treatment with 100 nM (or different concentration gradients) chicken ATCH1-39 for 30 min or 60 min in glucose-free medium containing gluconeogenic substrates (20 mM sodium lactate and 2 mM sodium pyruvate). Glucose concentration was determined with a glucose assay kit (Applygen, Beijing, China, catalog no. E1011). Briefly, the 5 µl medium was added into 195 µl reagent and incubated for 20 min at 37°C. Absorbance in 550 nm was measured in a standard glucose solution."}, "[4]": {"tested_on": "primary chicken hepatocytes", "assay": "Triglyceride content, primary chicken hepatocytes", "assay_type": "cell-based", "conditions": "24 h, normalized to protein, Figure 7E", "procedure": "as §1\nFor measurement of triglyceride content, after treated with ACTH1-39 for 24 h, hepatocytes were harvested and triglyceride (TG) content was analyzed using a commercial triglyceride content assay kit (Applygen, Beijing, China, catalog no. E1013). Results were normalized to the protein content of each sample, as determined using a BCA assay kit (Beyotime Institute of Biotechnology, China, catalog no. P0010)."}, "[5]": {"tested_on": "FASN mRNA, primary chicken hepatocytes", "assay": "FASN mRNA in primary chicken hepatocytes, RT-qPCR", "assay_type": "cell-based", "conditions": "0.1–100 nM, 6 h, N = 4, Figure 8H, listed as not decreased", "procedure": "as §1\n(§2) For quantitative real-time PCR, primary cultured chicken hepatocytes were treated with various concentrations of ACTH1-39 (or other composition) at 37°C for 6 h. The relative amount of mRNA was calculated using the comparative Ct method. Chicken β-actin gene was used as the reference gene. Amplification of specific transcripts was confirmed by analyzing the melting curve profile performed at the end of each run and by determining the size of the PCR products using agarose electrophoresis and ethidium bromide staining."}, "[6]": {"tested_on": "SCD mRNA, primary chicken hepatocytes", "assay": "SCD mRNA in primary chicken hepatocytes, RT-qPCR", "assay_type": "cell-based", "conditions": "0.1–100 nM, 6 h, N = 4, Figure 8I, listed as not decreased", "procedure": "as §1, §2"}, "[7]": {"tested_on": "chicken MC1R", "design": "method as in Ling et al., 2003; Ling et al., 2004; Mundy, 2005", "conditions": "ref Ling et al., 2003, 2004, Mundy, 2005; cited from earlier work"}, "[8]": {"tested_on": "chicken MC3R", "design": "method as in Zhang et al., 2017; Thomas et al., 2018", "conditions": "ref Zhang et al., 2017; Thomas et al., 2018; cited from earlier work"}, "[9]": {"tested_on": "7-day chickens", "conditions": "continuous administration through mini-osmotic pumps, ref Puvadolpirod and Thaxton, 2000a; cited from earlier work", "source_text": "Early studies have tested the effect of continuous ACTH administration in 7-day chickens ([Puvadolpirod and Thaxton, 2000a]; [Puvadolpirod and Thaxton, 2000b]; [Puvadolpirod and Thaxton, 2000c]; [Puvadolpirod and Thaxton, 2000d]; [Thaxton and Puvadolpirod, 2000]). […] A series of effects of ACT ..."}},
  "data": [
    {"substance": "H-SYSMEHFRWGKPVGRKRRPIKVYPNGVDEESAESYPMEF-OH [ACTH1-39]", "values": [
      {"measurement": "EC50", "setting": "[1]; Table 1 / Figure 3, co-expressed with cMRAP2, 6 h, pGL3-CRE-luciferase, mean ± SEM of at least three independent experiments (figure: four replicates), ^a: significantly different from the parameter of MC5R, p < 0.01", "result": "3.19 ± 1.09", "unit": "nM"},
      {"measurement": "effect of MRAP2 co-expression on sensitivity of MC5R", "setting": "[1]; α-MSH p < 0.01", "result": "did not affect the sensitivity of cMC5R to ACTH1-39"},
      {"measurement": "effect of MRAP2 co-expression on sensitivity of MC5R", "setting": "[1]; α-MSH p < 0.01, listed as ACTH", "result": "no effect on the sensitivity of chicken MC5R for ACTH"},
      {"measurement": "CREB phosphorylation", "setting": "[2]", "result": "significantly increased"},
      {"measurement": "time from which glucose production significantly increased", "setting": "[3]; 100 nM ACTH, 30 and 60 min, Figure 7A", "result": "≥ 0.5", "unit": "h"},
      {"measurement": "dose from which glucose production significantly increased", "setting": "[3]; 0.1–100 nM ACTH, 60 min, Figure 7B", "result": "≥ 1", "unit": "nM"},
      {"measurement": "glucose production (in words)", "setting": "[3]", "result": "enhanced glucose production"},
      {"measurement": "glucose production (in words)", "setting": "[3]; listed as ACTH", "result": "induction of gluconeogenesis"},
      {"measurement": "glucose production (in words)", "setting": "[3]; listed as cACTH1-39", "result": "significantly increased the level of glucose production"},
      {"measurement": "triglyceride (TG) contents", "setting": "[4]", "result": "decreased triglyceride contents"},
      {"measurement": "triglyceride (TG) contents", "setting": "[4]; listed as ACTH", "result": "prominently decreased triglyceride (TG) contents"},
      {"measurement": "FASN mRNA expression", "setting": "[5]", "result": "instead of ACACA, FASN and SCD"},
      {"measurement": "SCD mRNA expression", "setting": "[6]", "result": "instead of ACACA, FASN and SCD"},
      {"measurement": "MC1R response", "setting": "[7]", "result": "promoting intracellular cAMP accumulation"},
      {"measurement": "activation of chicken MC3R", "setting": "[8]", "result": "activated by both α-MSH and ACTH"},
      {"measurement": "plasma corticosterone", "setting": "[9]", "result": "a fast rise in plasma corticosterone"},
      {"measurement": "plasma glucose and relative liver weight", "setting": "[9]", "result": "an increase in plasma glucose and relative liver weight"}
    ]}
  ]
}
